Assay results from patent publication US20070117858A1, “SUBSTITUTED 5-HETEROARYL-1-PHENYL-PYRAZOLE CANNABINOID MODULATORS” (priority 2005, published 2007).

How the values were obtained:
[1] = target: T1, human CB1 receptor (Homo sapiens, UniProt P21554); experiment: Cannabinoid CB1 receptor binding assay ([3H]-CP-55,940 displacement, SK-N-MC cell membranes); details: for inhibition at 0.2 µM: 1.5 h, read-out: Cannabinoid CB1 Receptor Binding, percent inhibition
T1 construct: expressed in transfected cells; host or cells: SK-N-MC cells, stably transfected with pcDNA3 CB-1 (human); semi-purified membrane pellet
T1 sequence (P21554 whole entry): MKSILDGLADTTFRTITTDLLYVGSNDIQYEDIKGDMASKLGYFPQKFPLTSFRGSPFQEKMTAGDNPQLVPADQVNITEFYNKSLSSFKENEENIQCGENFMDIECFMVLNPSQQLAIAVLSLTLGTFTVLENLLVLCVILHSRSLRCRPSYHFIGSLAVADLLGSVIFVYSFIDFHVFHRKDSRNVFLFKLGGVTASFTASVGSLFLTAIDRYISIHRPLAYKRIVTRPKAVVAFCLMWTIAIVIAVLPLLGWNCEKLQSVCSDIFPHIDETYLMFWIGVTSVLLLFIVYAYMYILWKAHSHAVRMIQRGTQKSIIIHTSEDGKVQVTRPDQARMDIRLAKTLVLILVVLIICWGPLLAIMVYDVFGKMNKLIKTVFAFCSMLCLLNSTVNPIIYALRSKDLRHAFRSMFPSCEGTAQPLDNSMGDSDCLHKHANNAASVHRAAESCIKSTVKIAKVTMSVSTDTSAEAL
Procedure: (§1) Binding Assay for CB1 or CB2 Agonists or Inverse Agonists
(§2) The human CB1 and CB2 receptors were stably expressed in SK-N-MC cells transfected with pcDNA3 CB-1 (human) or pcDNA3 CB-2 (human). The cells were grown in T-180 cell culture flasks under standard cell culture conditions at 37° C. in a 5% CO2 atmosphere. The cells were harvested by trysinization and homogenized in a homogenization buffer (10 mM Tris, 0.2 mM MgCl2, 5 mM KCl, with protease inhibitors aprotinin, leupeptin, pepstatin A and bacitracin) and centrifuged (2000 g). The supernatant was then centrifuged in 2M sucrose (31,300 g) to produce a semi-purified membrane pellet. The pellet was resuspended in homogenization and stored at −80° C.
(§3) On the day of the assay, the pellet was thawed on ice and diluted in assay buffer (50 mM Tris-HCl, 5 mM MgCl2, 2.5 mM EDTA, 0.5 mg/mL fatty acid free bovine serum albumin, pH 7.5). The diluted membrane pellet was added with buffer, either a test compound or vehicle standard and the radioligand […] (0.2 nM) to the wells of a 96-well polypropylene plate. Non-specific binding was measured in wells containing W1N 55,212 (10 uM). The plate was covered and incubated for 90 minutes at 30° C. The contents were then aspirated onto a Packard Unifilter GF/C filter bottom plate prewet with 0.5% polyethyleneimine. The wells of the polypropylene plate were rinsed and aspirated seven times with a 0.9% saline-0.5% Tween 20 solution. The Unifilter plate was dried, scintillation cocktail was added to each well and the counts representing binding were quantitated in a TopCount scintillation counter.
(§4) For compounds tested, an IC50 binding value was obtained from percent inhibition studies in which various test concentrations were used. The binding value was calculated by linear regression.
(§5) For compounds without an IC50 binding value, the percent inhibition (%) was obtained at a test concentration of 0.2 μM.

[2] = target: T2, human CB2 receptor (Homo sapiens, UniProt P34972); experiment: Cannabinoid CB2 receptor binding assay ([3H]-CP-55,940 displacement, SK-N-MC cell membranes); details: 1.5 h; test concentration of 0.2 μM; radioligand CP-55,940 0.2 nM; read-out: Cannabinoid CB2 Receptor Binding, percent inhibition
T2 construct: expressed in transfected cells; host or cells: SK-N-MC cells, stably transfected with pcDNA3 CB-2 (human); semi-purified membrane pellet
T2 sequence (P34972 whole entry): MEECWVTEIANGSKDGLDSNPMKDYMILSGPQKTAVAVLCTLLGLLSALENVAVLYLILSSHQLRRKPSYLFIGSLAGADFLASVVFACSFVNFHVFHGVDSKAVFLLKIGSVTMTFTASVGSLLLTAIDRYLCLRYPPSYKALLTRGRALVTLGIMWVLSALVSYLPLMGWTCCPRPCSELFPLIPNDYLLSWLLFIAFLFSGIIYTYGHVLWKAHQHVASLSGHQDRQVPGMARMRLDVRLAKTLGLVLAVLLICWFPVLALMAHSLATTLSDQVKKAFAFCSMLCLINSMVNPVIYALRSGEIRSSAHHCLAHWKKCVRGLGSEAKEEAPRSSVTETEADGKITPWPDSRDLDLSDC
Procedure: as §1, §2, §3, §4, §5

Row | SMILES | IC50 [1] [nM] | inhibition at 0.2 µM [1] [%] | inhibition at 0.2 µM [2] [%]
1 | Cc1c(C(=O)N[C@@H](C)c2ccccn2)nn(-c2ccc(Cl)cc2Cl)c1-c1ccc(Cl)s1 [Cpd 1, 5-(5-chloro-thiophen-2-yl)-1-(2,4-dichloro-phenyl)-4-methyl-1H-pyrazole-3-carboxylic acid [(1S)-1-pyridin-2-yl-ethyl]-amide] | 38 | – | –
2 | Cc1c(C(=O)NN2CCCCC2)nn(-c2ccc(Cl)cc2Cl)c1-c1ccc(Cl)s1 [Cpd 2, 5-(5-chloro-thiophen-2-yl)-1-(2,4-dichloro-phenyl)-4-methyl-1H-pyrazole-3-carboxylic acid piperidin-1-ylamide] | 40 | – | –
3 | Cc1c(C(=O)N[C@@H](C)c2ccccc2)nn(-c2ccc(Cl)cc2Cl)c1-c1ccc(Cl)s1 [Cpd 3, 5-(5-chloro-thiophen-2-yl)-1-(2,4-dichloro-phenyl)-4-methyl-1H-pyrazole-3-carboxylic acid [(1S)-1-phenyl-ethyl]-amide] | 35 | – | –
4 | Cc1c(C(=O)NN2CCC(O)CC2)nn(-c2ccc(Cl)cc2Cl)c1-c1ccc(Cl)s1 [Cpd 4, 5-(5-chloro-thiophen-2-yl)-1-(2,4-dichloro-phenyl)-4-methyl-1H-pyrazole-3-carboxylic acid (4-hydroxy-piperidin-1-yl)-amide] | – | 27 | 11
5 | Cc1c(C(=O)N[C@H](C)C2CCCCC2)nn(-c2ccc(Cl)cc2Cl)c1-c1cccs1 [Cpd 5, 1-(2,4-dichloro-phenyl)-4-methyl-5-thiophen-2-yl-1H-pyrazole-3-carboxylic acid [(1R)-1-cyclohexyl-ethyl]-amide] | – | 43 | 15
6 | Cc1c(C(=O)N[C@H](C)c2ccccc2)nn(-c2ccc(Cl)cc2Cl)c1-c1cccs1 [Cpd 6, 1-(2,4-dichloro-phenyl)-4-methyl-5-thiophen-2-yl-1H-pyrazole-3-carboxylic acid [(1R)-1-phenyl-ethyl]-amide] | – | 57 | 8
7 | Cc1c(C(=O)N[C@@H](C)c2ccccc2)nn(-c2ccc(Cl)cc2Cl)c1-c1cccs1 [Cpd 7, 1-(2,4-dichloro-phenyl)-4-methyl-5-thiophen-2-yl-1H-pyrazole-3-carboxylic acid [(1S)-1-phenyl-ethyl]-amide] | – | 28 | 0
8 | Cc1c(C(=O)N[C@@H](C)C2CCCCC2)nn(-c2ccc(Cl)cc2Cl)c1-c1cccs1 [Cpd 8, 1-(2,4-dichloro-phenyl)-4-methyl-5-thiophen-2-yl-1H-pyrazole-3-carboxylic acid [(1S)-1-cyclohexyl-ethyl]-amide] | – | 34 | 1
9 | Cc1c(C(=O)N[C@@H](C)c2ccccn2)nn(-c2ccc(Cl)cc2Cl)c1-c1cccs1 [Cpd 9, 1-(2,4-dichloro-phenyl)-4-methyl-5-thiophen-2-yl-1H-pyrazole-3-carboxylic acid [(1S)-1-pyridin-2-yl-ethyl]-amide] | – | 25 | 8
10 | Cc1c(C(=O)NN2CCCCC2)nn(-c2ccc(Cl)cc2Cl)c1-c1cccs1 [Cpd 10, 1-(2,4-dichloro-phenyl)-4-methyl-5-thiophen-2-yl-1H-pyrazole-3-carboxylic acid piperidin-1-ylamide] | – | 37 | 6
11 | Cc1c(C(=O)NN2CC3CCCC3C2)nn(-c2ccc(Cl)cc2Cl)c1-c1cccs1 (stereo not shown) [Cpd 11, 1-(2,4-dichloro-phenyl)-4-methyl-5-thiophen-2-yl-1H-pyrazole-3-carboxylic acid (hexahydro-cyclopenta[c]pyrrol-2-yl)-amide] | – | 53 | 0
12 | Cc1c(C(=O)N[C@@H](C)C2CCCCC2)nn(-c2ccc(Cl)cc2Cl)c1-c1ccc(Cl)s1 [Cpd 12, 5-(5-chloro-thiophen-2-yl)-1-(2,4-dichloro-phenyl)-4-methyl-1H-pyrazole-3-carboxylic acid [(1S)-1-cyclohexyl-ethyl]-amide] | 15 | – | 40
13 | Cc1c(C(=O)N[C@H](C)C2CCCCC2)nn(-c2ccc(Cl)cc2Cl)c1-c1ccc(Cl)s1 [Cpd 13, 5-(5-chloro-thiophen-2-yl)-1-(2,4-dichloro-phenyl)-4-methyl-1H-pyrazole-3-carboxylic acid [(1R)-1-cyclohexyl-ethyl]-amide] | 74 | – | 37
14 | Cc1c(C(=O)N[C@H](C)c2ccccc2)nn(-c2ccc(Cl)cc2Cl)c1-c1ccc(Cl)s1 [Cpd 14, 5-(5-chloro-thiophen-2-yl)-1-(2,4-dichloro-phenyl)-4-methyl-1H-pyrazole-3-carboxylic acid [(1R)-1-phenyl-ethyl]-amide] | 27 | – | 40
15 | CCc1c(C(=O)NN2CCCCC2)nn(-c2ccc(Cl)cc2Cl)c1-c1ccc(Cl)s1 [Cpd 15, 5-(5-chloro-thiophen-2-yl)-1-(2,4-dichloro-phenyl)-4-ethyl-1H-pyrazole-3-carboxylic acid piperidin-1-ylamide] | 12 | – | 29
16 | C[C@@H](NC(=O)c1nn(-c2ccc(Cl)cc2Cl)c(-c2cccs2)c1C#N)c1ccccc1 [Cpd 16, 4-cyano-1-(2,4-dichloro-phenyl)-5-thiophen-2-yl-1H-pyrazole-3-carboxylic acid [(1R)-1-phenyl-ethyl]-amide] | – | 61 | 17
17 | C[C@@H](NC(=O)c1nn(-c2ccc(Cl)cc2Cl)c(-c2cccs2)c1C#N)c1ccccn1 [Cpd 17, 4-cyano-1-(2,4-dichloro-phenyl)-5-thiophen-2-yl-1H-pyrazole-3-carboxylic acid [(1R)-1-pyridin-2-yl-ethyl]-amide] | – | 25 | 14
18 | C[C@@H](NC(=O)c1nn(-c2ccc(Cl)cc2Cl)c(-c2cccs2)c1C#N)C1CCCCC1 [Cpd 18, 4-cyano-1-(2,4-dichloro-phenyl)-5-thiophen-2-yl-1H-pyrazole-3-carboxylic acid [(1R)-1-cyclohexyl-ethyl]-amide] | – | 66 | 21
19 | Cc1c(C(=O)N[C@@H](C)c2ccccc2)nn(-c2ccc(Cl)cc2Cl)c1-c1ccc(I)s1 [Cpd 36, 1-(2,4-dichloro-phenyl)-5-(5-iodo-thiophen-2-yl)-4-methyl-1H-pyrazole-3-carboxylic acid [(1S)-1-phenyl-ethyl]-amide] | 17 | – | –
20 | Cc1c(C(=O)N[C@@H](C)c2ccccn2)nn(-c2ccc(Cl)cc2Cl)c1-c1ccc(I)s1 [Cpd 37, 1-(2,4-dichloro-phenyl)-5-(5-iodo-thiophen-2-yl)-4-methyl-1H-pyrazole-3-carboxylic acid [(1S)-1-pyridin-2-yl-ethyl]-amide] | 31 | – | –
21 | Cc1c(C(=O)N[C@H](C)c2ccccc2)nn(-c2ccc(Cl)cc2Cl)c1-c1ccc(I)s1 [Cpd 38, 1-(2,4-dichloro-phenyl)-5-(5-iodo-thiophen-2-yl)-4-methyl-1H-pyrazole-3-carboxylic acid [(1R)-1-phenyl-ethyl]-amide] | 23 | – | –
22 | Cc1c(C(=O)N[C@@H](C)C2CCCCC2)nn(-c2ccc(Cl)cc2Cl)c1-c1ccc(I)s1 [Cpd 39, 1-(2,4-dichloro-phenyl)-5-(5-iodo-thiophen-2-yl)-4-methyl-1H-pyrazole-3-carboxylic acid [(1S)-1-cyclohexyl-ethyl]-amide] | 18 | – | –
